{
  "source": "patent US11065296B2",
  "about": "“Antimicrobial peptide, its analog and use” (City University of Hong Kong, priority 2018, dated 2021)",
  "key": {"[1]": {"system": "E. coli", "experiment": "Antibacterial activities of the peptide analogs (relative OD600)", "assay_type": "cell-based", "excerpt": "FIG. 10 is a plot showing the antibacterial activities of the peptide analogs on E. coli. C-amidation: C-terminus amidated Peptide A; B1: RIILRAQGALKI; B2: IRIILRAQGALK; B3: RIILR. Results expressed as relative OD600 compared to culture medium group (%) (*: p<0.05, **: p<0.01, n=3)"}, "[2]": {"system": "E. coli", "assay_type": "cell-based"}, "[3]": {"system": "CpxR", "experiment": "Quantitative real-time PCR", "assay_type": "cell-based", "details": "E. tarda, Piscidin 7.5 μM, 1 hour", "excerpt": "(§1) Results are expressed as 2^(−Delta Delta C (T)). […] Results are expressed as 2^(−Delta Delta C (T)).\nEach group has 6 biological replicates. […] Gene-specific primers were designed with Primer-BLAST (NCBI)."}, "[4]": {"system": "E. coli PQ37", "experiment": "SOS induction (chromotest)", "assay_type": "cell-based", "procedure": "as §1\nE. coli PQ37 (Genotype: Sfi A and Lac Z fusion, lac Z) was cultured in lysogeny broth (LB) that contained 57.2 μM of ampicillin overnight (37° C.) and subcultured through 20 dilutions on another day so that OD600 equals to 0.2-0.4. PQ37 was incubated in 0.3 ml AMP (3.4 μM) or Piscidin ([…], 3.77 μM) for 2 hours and then re-suspended in the same volume of Z-buffer (Na2HPO4.7H2O 16.1 g/l, NaH2PO4.2H2O 6.24 g/L, KCl 0.75 g/L, MgSO4.7H2O 0.246 g/L and b-mercaptoethanol 0.3% (v/v)) for carrying out a β-galactosidase assay (β-ga) and alkaline phosphatase assay (ap), respectively. The bacteria were lysed with 0.1 ml of 0.1% SDS and 0.15 ml of chloroform. For the β-ga assay, the reaction was started by adding 0.6 ml of ortho-Nitrophenyl-β-galactoside (ONPG; Catalog number 34055, ThermoFisher Scientific) for color development and then stopped with the addition of 2 ml of 1 M NaCO3 solution. For ap acsay, the reaction was started by adding 0.6 ml of para-Nitrophenylphosphate (PNPP; Catalog number 34045, ThermoFisher Scientific) for color development which was then terminated by the addition of 1 ml of 2 M HCl solution and 1 ml of 2 M Tri-HCl to restore the colour. The absorbance was read at 420 nm against a blank without bacteria. The induction factor (IF) was calculated as the ratio R(x)/R(0) (R(x)=β-g/ap determined for the tested peptide; R(0)=β-g/ap determined for the LB). Furacin (antibiotic) and Piscidin were chosen as the controls. Each experiment was performed in triplicate."}, "[5]": {"system": "E. tarda", "experiment": "Host resistance assay, Experiment Two: pre-injection 2 h before bacteria", "assay_type": "in vivo, Medaka", "details": "injected 2 h prior to E. tarda", "procedure": "FIG. 11A is a plot showing the effect of Peptide A on viability of cultured mammalian cells, incubated for 48 h in the presence of Peptide A at different concentrations (μg/ml), as determined by MTT assay. Cell viability represented as peptide treated cell numbers over medium-only control. Statistically significant difference as compared to controls (*: p<0.05, **: p<0.01, n=4). FIG. 11B is a plot showing the ability of Peptide A to protect medaka from lethal challenge of E. tarda ([…]). Medaka was injected with 1 μl of Peptide A (0.68 mM), with 1 μl of E. tarda (10^7 CFU/ml) and Peptide A (0.68 mM) mixture, or with E. tarda alone (1 μl of E. tarda:10^7 CFU/ml). […] 20 fish per group. Log-rank (Mantel-Cox) test was applied for the comparison of survival curves (**: p<0.01).\nThe efficacy of the synthesized AMP to protect medaka against infection was characterized using host resistance assays with intraperitoneal (i.p.) injection of bacteria using a micro-injection machine (PV820 Pneumatic PicoPump). In Experiment One, 80 medaka fish were used and divided into four groups (20 fish in each group, male, 6 months): (1) Group 1 was injected with only 1 μl of PBS in each fish; (2) Group 2 was injected with only 1 μl of novel AMP (0.68 mM) in each fish; (3) Group 3 was injected with 1 μl of bacteria (at a titer of 5×10^7 CFU/ml); and (4) bacteria and novel AMP were mixed for 5 min and then 1 μl of the mixture was injected into Group 4 (Bacteria: 5×10^7 CFU/ml, AMP: 0.68 mM). In Experiment Two, 60 fish were used and divided into three groups: each fish was injected with 1 μl of PBS, ampicillin (5.7 mM) or Peptide A (1.36 mM). The fish were anesthetized in MS222 for 30 s before microinjection. After two hours, 1 μl of bacteria (5×10^7 CFU/ml) was injected into the fish. All of the fishes were kept under a static condition of 26° C.±1° C., with 14:10 hrs of a light-dark cycle. The water was replaced every two days. The fish were fed three times each day. The number of dead fish was counted on a daily basis until two weeks after the injections."}},
  "note": "Peptide text beside a SMILES is read from it.",
  "data": [
    {"compound": "RIILRAQGALKI [Peptide B1, Peptide A with the N-terminal amino acid removed]", "values": [
      {"measurement": "antibacterial activity compared with Peptide A", "setting": "[1]", "result": "reduce the antibacterial effect"}
    ]},
    {"compound": "IRIILRAQGALK [Peptide B2, Peptide A with the C-terminal amino acid removed]", "values": [
      {"measurement": "antibacterial activity compared with Peptide A", "setting": "[1]", "result": "reduce the antibacterial effect"}
    ]},
    {"compound": "CC(C)C[C@H](NC(=O)[C@H](Cc1ccc(O)cc1)NC(=O)[C@H](Cc1c[nH]cn1)NC(=O)[C@H](CCCCN)NC(=O)[C@H](CC(C)C)NC(=O)[C@H](C)NC(=O)[C@H](CC(C)C)NC(=O)[C@H](CCCCN)NC(=O)CNC(=O)[C@@H](NC(=O)[C@@H](NC(=O)[C@H](CCCCN)NC(=O)[C@@H](NC(=O)[C@H](CCC(=O)O)NC(=O)[C@H](C)NC(=O)[C@H](CCCCN)NC(=O)[C@H](CCCCN)NC(=O)[C@H](CC(C)C)NC(=O)[C@H](CC(C)C)NC(=O)[C@@H](NC(=O)[C@H](CCCNC(=N)N)NC(=O)[C@H](Cc1c[nH]c2ccccc12)NC(=O)CN)[C@@H](C)O)C(C)C)[C@@H](C)O)C(C)C)C(=O)O", "note": "[Piscidin] (H-GWRTLLKKAEVKTVGKLALKHYL-OH; N-terminus and C-terminus assumed)", "values": [
      {"measurement": "MIC for E. coli", "setting": "[2]", "result": 3.77, "unit": "µM"},
      {"measurement": "CpxR gene expression", "setting": "[3]", "result": "no effect"},
      {"measurement": "SOS response (induction factor)", "setting": "[4]; E. coli PQ37, 120 min, Peptide A 3.4 μM, Piscidin 3.77 μM", "result": "no effect on SOS response"}
    ]},
    {"compound": "CC1(C)S[C@@H]2[C@H](NC(=O)[C@H](N)c3ccccc3)C(=O)N2[C@H]1C(=O)O", "note": "[Ampicillin, reference compound]", "values": [
      {"measurement": "initial survival rate", "setting": "[5]; one day post injection, Peptide A 1.37 mM, Ampicillin 5.7 mM, 1 μl", "result": "about 45%"},
      {"measurement": "effect on E. tarda infection / surviving fish", "setting": "[5]; two weeks after infection", "result": "ineffective"}
    ]},
    {"compound": "RIILR [Peptide B3]", "values": [
      {"measurement": "antibacterial activity compared with Peptide A", "setting": "[1]", "result": "much weaker antibacterial activity"}
    ]},
    {"compound": "NC(=O)N/N=C/c1ccc([N+](=O)[O-])o1", "note": "[Furacin]", "values": [
      {"measurement": "SOS response (expression of LacZ), positive control", "setting": "[4]; E. coli, different doses of Furacin", "result": "dose-dependent expression of LacZ"}
    ]}
  ]
}
